Assay results: paper PMC11127902, “Rescuing tri-heteromeric NMDA receptor function: the potential of pregnenolone-sulfate in loss-of-function GRIN2B variants” (Cellular and Molecular Life Sciences: CMLS, 2024)

Experiments:
[1] = system: synaptic NMDARs in cultured hippocampal neurons; experiment: Fraction of extrasynaptic NMDARs with MK-801, hippocampal neurons; assay type: cell-based, rat; settings: 1 μM MK-801 10 min, 100 μM NMDA
Description: Evaluation of the fraction of extrasynaptic NMDARs was done as previously described. Briefly, neurons were initially perfused with extracellular solution (see above) supplemented with 100 μM of NMDA to assess the total (synaptic and extrasynaptic) NMDAR-dependent current. Subsequently, the 100 μM of NMDA was thoroughly washed for 2 min (to refrain from activation of NMDAR by remaining NMDA), then neurons were perfused with the extracellular solution supplemented with 1 μM MK-801 for 10 min to exclusively block synaptic receptors (which are activated by action-potential independent miniature neurotransmission). Extrasynaptic NMDAR-dependent currents were then measured by washing the cells from excess MK-801 for 2 min followed by a second application of 100 μM NMDA. Evaluation of the fraction of the extrasynaptic NMDARs was done by dividing the maximal current remaining after MK-801 application by the current obtained before the MK-801 treatment.

[2] = system: GluN2B-G689C and GluN2B-G689S variant receptors; set-up: method as in PMID 34212862, PMID 37369021; settings: cited from earlier work
[3] = molecular target: T1, Mixed di-heteromeric GluN2B-wt/GluN2B-G689S (Rattus norvegicus, UniProt P35439+Q00960, G689S); experiment: TEVC in Xenopus oocytes; assay type: cell-based; settings: 5 mM glutamate
T1 construct: expressed in transfected cells; host or cells: Xenopus laevis oocytes, mRNA injection
Excerpt: (§1) Aliquots were thawed before each experiment.

[4] = molecular target: T2, Purely di-heteromeric GluN2B-G689C (C1/C2) (Rattus norvegicus, UniProt P35439+Q00959+Q00960, A876H/F846L/G689C/G856D/H848F/K857R/M851T/M860L/Q845K/V861L); experiment: TEVC in Xenopus oocytes; assay type: cell-based
T2 construct: expressed in transfected cells; host or cells: Xenopus laevis oocytes, mRNA injection
Excerpt: as §1

[5] = molecular target: T3, Purely di-heteromeric GluN2B-G689S (C1/C2) (Rattus norvegicus, UniProt P35439+Q00959+Q00960, A876H/F846L/G689S/G856D/H848F/K857R/M851T/M860L/Q845K/V861L); experiment: TEVC in Xenopus oocytes; assay type: cell-based
T3 construct: expressed in transfected cells; host or cells: Xenopus laevis oocytes, mRNA injection
Excerpt: as §1

[6] = molecular target: T4, Purely di-heteromeric GluN2B-wt (GluN1-1a-wt + GluN2B-wt-C1/C2) (Rattus norvegicus, UniProt P35439+Q00959+Q00960, A876H/F846L/G856D/H848F/K857R/M851T/M860L/Q845K/V861L); experiment: TEVC in Xenopus oocytes; assay type: cell-based; settings: 5 mM glutamate
T4 construct: expressed in transfected cells; host or cells: Xenopus laevis oocytes, mRNA injection
Excerpt: as §1

[7] = molecular target: T5, Tri-heteromeric GluN2A-wt/GluN2B-G689C (Rattus norvegicus, UniProt P35439+Q00959+Q00960, A876H/F846L/G689C/G856D/H848F/K857R/M851T/M860L/Q845K/V861L); assay type: cell-based; settings: 5 mM glutamate
T5 construct: expressed in transfected cells; host or cells: Xenopus laevis oocytes, mRNA injection
Excerpt: as §1

[8] = molecular target: T6, Tri-heteromeric GluN2A-wt/GluN2B-G689S (Rattus norvegicus, UniProt P35439+Q00959+Q00960, A876H/F846L/G689S/G856D/H848F/K857R/M851T/M860L/Q845K/V861L); assay type: cell-based; settings: 5 mM glutamate
T6 construct: expressed in transfected cells; host or cells: Xenopus laevis oocytes, mRNA injection
Excerpt: as §1

[9] = system: NMDAR-dependent currents in cultured hippocampal neurons (naive or overexpressing GluN2B-wt, GluN2B-G689C, GluN2B-G689S); experiment: Whole cell patch clamp of primary cultured hippocampal neurons; assay type: cell-based, rat
Description: Cultures of hippocampal primary neurons were established as previously stated. Briefly, extracted rat neonates (P0) hippocampi were dissociated and plated onto 12 mm poly-D-lysine (Sigma-Aldrich, Cat. #P6407)- treated glass coverslips. Cultures were then maintained in an enriched growth media and grown at 37 °C and 5% CO2. Following five days in-vitro (DIV), growth medium was supplemented with 4 μM cytosine-arabinoside (ARA-C) to suppress glia proliferation. At nine DIV, neurons were co-transfected using the calcium-phosphate method with 2 different plasmids: 0.3 μg DNA of eYFP and 2 μg GluN2B-wt or GluN2B-G689C or GluN2B-G689S. To avoid recordings from cells transfected only with the fluorescent reporter, the ratio between the different plasmids during co-transfection favored the plasmids encoding GluN2B-wt/G689C/G689S. Recordings were performed four to seven days past transfection.
We patched YFP-positive neurons at 13–18 DIV. YFP was excited by X-Cite LED illuminator (Excelitas Technologies). Electrode were made by pulling glass capillaries to resistance of 5–10 MΩ. Electrodes were filled with an intracellular solution containing (in mM): 135 K-gluconate, 10 NaCl, 10 HEPES, 2 MgCl2, 2 Mg^2+-ATP, 1 EGTA, pH adjusted to 7.3 with KOH. Patch-clamp recordings were performed with Axon MultiClamp 700B amplifier and Axon Digidata 1440A acquisition system. In all experiments, recordings were performed using a 10 kHz sampling rate and low pass filter. Neurons were clamped at (-70) mV. […] Cells were recorded for ~ 3 min. For assessing the total NMDAR-dependent current (Imax), neurons were then perfused with extracellular solution (see above) supplemented with 100 μM of NMDA (Alomone labs, Cat #: N-170) for exclusive activation of NMDARs. Potentiation was assessed by perfusing cells with the extracellular solution along with 100 μM NMDA and 100 μM of PS (Cat. #P162) in 0.2% DMSO. […] Cells that didn’t reach steady-state after application of 100 μM NMDA were excluded from analysis. Extent of potentiation by PS was evaluated at steady-state.

[10] = molecular target: T7, GluN2A-wt-containing tri-heteromeric receptors (GluN2B wt or variants) (Rattus norvegicus, UniProt P35439+Q00959+Q00960, A876H/F846L/G856D/H848F/K857R/M851T/M860L/Q845K/V861L); experiment: TEVC in Xenopus oocytes, all tri-heteromers; assay type: cell-based
T7 construct: expressed in transfected cells; host or cells: Xenopus laevis oocytes, mRNA injection
Excerpt: as §1

[11] = molecular target: T8, Purely wt or mixed di-heteromeric receptors containing GluN2B-subunits (Rattus norvegicus, UniProt P35439+Q00959+Q00960, A876H/F846L/G856D/H848F/K857R/M851T/M860L/Q845K/V861L); experiment: TEVC in Xenopus oocytes, wt and mixed di-heteromers; assay type: cell-based; settings: 100 µM PS
T8 construct: expressed in transfected cells; host or cells: Xenopus laevis oocytes, mRNA injection
Excerpt: as §1

[12] = system: GluN2C- and GluN2D-containing di-heteromers; settings: cited from earlier work
GABAA receptor = system: GABAA receptor; set-up: method as in PMID 34339523; settings: cited from earlier work
[13] = molecular target: Mixed di-heteromeric GluN2B-wt/GluN2B-G689C (Rattus norvegicus, UniProt P35439+Q00960, G689C); experiment: TEVC in Xenopus oocytes; settings: 5 mM glutamate
Description: (§2) Two electrode voltage clamp (TEVC) recordings were carried out 24–72 h after mRNA injections, as previously described [17, 37]. We use a commercial amplifier (Warner Instruments, USA) and Digitizer (Digidata-1550B; Molecular Devices, USA), controlled by the pClamp10 software (Molecular Devices, USA). Electrode were made by pulling glass capillaries (Narishige, Japan) filled with 3 M KCl, into which we inserted chlorinated silver wires. […] For hERG channel recordings, oocytes were clamped at (− 60) mV for 1 s, followed by a voltage jump to 20 mV for 4 s, and an additional voltage jump to (− 50) mV for 6 s and return to baseline voltage (see Supplementary. 6f), as previously described [53].
(§3) When assessing potentiation by PS, all other solutions also included equal amounts of the DMSO carrier (0.2%).
Electrophysiology data were analyzed by Clampfit 11.2 (Molecular Devices, USA), plotted using GraphPad 8 or SigmaPlot 11(Systat software, Inc.). […] In all TEVC recordings in oocytes, the responses were normalized to current amplitude obtained from that individual cell. […] All data are shown as mean ± SEM. In all experiments N indicates the number of independent experiments, whereas n indicates the number of cells recorded. In each experiment, data underwent normality test prior to statistical assessment. Normally distributed data were assessed for significance by using paired t-test or one-way ANOVA for multiple group comparison and post hoc Tukey test or Dunnett's test. Similarly, in the case of non-normally distributed data significance was assessed by Mann Whitney test or Kruskal–Wallis ANOVA on ranks test followed by Dunn’s multiple comparison post hoc; n.s., non-significant; *p < 0.05; **p < 0.01; ***p < 0.001. […] Leak expression was evaluated by normalizing the maximal current (Imax) of each ER-retained NMDAR composition to Imax of control group (which was recorded in all experiments). Estimation of activation time constant (τ) for potentiated currents by PS, was performed by fitting PS- potentiated currents with a standard single-exponential function, from which we extracted the time constant (τ).

[14] = molecular target: Tri-heteromeric GluN2A-wt/GluN2B-wt (Rattus norvegicus, UniProt P35439+Q00959+Q00960, A876H/F846L/G856D/H848F/K857R/M851T/M860L/Q845K/V861L); experiment: TEVC in Xenopus oocytes; settings: 5 mM glutamate
Description: as §2, §3
Electrophysiology data were analyzed by Clampfit 11.2 (Molecular Devices, USA), plotted using GraphPad 8 or SigmaPlot 11(Systat software, Inc.). […] In all TEVC recordings in oocytes, the responses were normalized to current amplitude obtained from that individual cell. […] All data are shown as mean ± SEM. In all experiments N indicates the number of independent experiments, whereas n indicates the number of cells recorded. In each experiment, data underwent normality test prior to statistical assessment. Normally distributed data were assessed for significance by using paired t-test or one-way ANOVA for multiple group comparison and post hoc Tukey test or Dunnett's test. Similarly, in the case of non-normally distributed data significance was assessed by Mann Whitney test or Kruskal–Wallis ANOVA on ranks test followed by Dunn’s multiple comparison post hoc; n.s., non-significant; *p < 0.05; **p < 0.01; ***p < 0.001. […] Leak expression was evaluated by normalizing the maximal current (Imax) of each ER-retained NMDAR composition to Imax of control group (which was recorded in all experiments). […]

[15] = system: non-tagged purely di-heteromeric GluN2B-G689C; settings: purely variant di-heteromers, previous observations; cited from earlier work
[16] = system: non-tagged purely di-heteromeric GluN2B-G689S; settings: purely variant di-heteromers, previous observations; cited from earlier work
all NMDAR-subtypes = system: all NMDAR-subtypes; set-up: method as in PMID 24174662; settings: cited from earlier work
GABAA receptors = system: GABAA receptors; set-up: method as in PMID 24174662; settings: cited from earlier work
GluN2B di-heteromers = system: GluN2B di-heteromers; set-up: method as in PMID 29682629; settings: 2.5 μM ifenprodil; cited from earlier work
[17] = system: tri-heteromers (GluN2A/GluN2B); set-up: method as in PMID 29682629; settings: 2.5 μM ifenprodil; cited from earlier work
[18] = system: GluN2A-containing di-heteromers; set-up: method as in PMID 29682629; settings: 2.5 μM ifenprodil; cited from earlier work
[19] = molecular target: di- or tri-heteromeric NMDA receptors (Rattus norvegicus, UniProt P35439+Q00959+Q00960, A876H/F846L/G856D/H848F/K857R/M851T/M860L/Q845K/V861L); settings: 0.1-10 μM olanzapine, 5 mM glutamate, 100 μM glycine
Excerpt: as §1

T7 sequence (Q00959 23-1464, other chains not shown): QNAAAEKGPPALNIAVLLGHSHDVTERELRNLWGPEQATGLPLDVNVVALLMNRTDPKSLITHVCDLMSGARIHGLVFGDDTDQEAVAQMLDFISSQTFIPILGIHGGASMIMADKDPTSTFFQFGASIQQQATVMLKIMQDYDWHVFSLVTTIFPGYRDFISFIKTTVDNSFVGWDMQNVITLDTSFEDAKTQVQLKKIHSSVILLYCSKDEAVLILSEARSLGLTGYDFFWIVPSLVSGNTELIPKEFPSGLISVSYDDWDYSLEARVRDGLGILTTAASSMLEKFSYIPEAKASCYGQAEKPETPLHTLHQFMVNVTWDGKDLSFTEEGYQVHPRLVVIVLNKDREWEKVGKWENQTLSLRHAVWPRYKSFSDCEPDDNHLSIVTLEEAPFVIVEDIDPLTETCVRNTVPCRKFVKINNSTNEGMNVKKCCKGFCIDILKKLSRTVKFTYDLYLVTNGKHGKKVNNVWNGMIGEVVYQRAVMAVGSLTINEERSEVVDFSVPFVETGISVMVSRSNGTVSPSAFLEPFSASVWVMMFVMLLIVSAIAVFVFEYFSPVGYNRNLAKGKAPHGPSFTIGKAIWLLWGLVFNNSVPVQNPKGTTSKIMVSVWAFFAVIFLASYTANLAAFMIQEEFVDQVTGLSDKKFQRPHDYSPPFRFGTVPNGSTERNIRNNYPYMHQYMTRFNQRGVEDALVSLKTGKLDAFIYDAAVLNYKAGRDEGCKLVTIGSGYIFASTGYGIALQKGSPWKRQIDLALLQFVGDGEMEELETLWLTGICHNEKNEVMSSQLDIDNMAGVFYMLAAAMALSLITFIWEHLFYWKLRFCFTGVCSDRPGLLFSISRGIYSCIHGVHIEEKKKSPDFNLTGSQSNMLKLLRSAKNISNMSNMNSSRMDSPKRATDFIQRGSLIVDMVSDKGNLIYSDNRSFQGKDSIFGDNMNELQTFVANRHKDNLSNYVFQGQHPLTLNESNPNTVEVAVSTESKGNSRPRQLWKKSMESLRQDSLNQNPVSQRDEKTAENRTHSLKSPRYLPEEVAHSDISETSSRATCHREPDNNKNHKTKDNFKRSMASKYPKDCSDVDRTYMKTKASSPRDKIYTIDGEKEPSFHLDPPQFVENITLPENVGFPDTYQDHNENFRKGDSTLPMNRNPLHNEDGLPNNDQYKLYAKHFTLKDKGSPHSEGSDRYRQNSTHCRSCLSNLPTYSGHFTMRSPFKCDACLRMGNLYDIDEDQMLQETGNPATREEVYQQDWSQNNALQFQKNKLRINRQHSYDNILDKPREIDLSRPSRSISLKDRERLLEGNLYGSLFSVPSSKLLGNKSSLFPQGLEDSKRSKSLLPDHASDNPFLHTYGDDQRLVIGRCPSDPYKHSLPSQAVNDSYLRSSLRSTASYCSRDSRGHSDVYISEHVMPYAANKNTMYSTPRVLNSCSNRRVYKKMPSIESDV
T7 sequence (Q00960+Q00959 fused with the stated changes, other chains not shown): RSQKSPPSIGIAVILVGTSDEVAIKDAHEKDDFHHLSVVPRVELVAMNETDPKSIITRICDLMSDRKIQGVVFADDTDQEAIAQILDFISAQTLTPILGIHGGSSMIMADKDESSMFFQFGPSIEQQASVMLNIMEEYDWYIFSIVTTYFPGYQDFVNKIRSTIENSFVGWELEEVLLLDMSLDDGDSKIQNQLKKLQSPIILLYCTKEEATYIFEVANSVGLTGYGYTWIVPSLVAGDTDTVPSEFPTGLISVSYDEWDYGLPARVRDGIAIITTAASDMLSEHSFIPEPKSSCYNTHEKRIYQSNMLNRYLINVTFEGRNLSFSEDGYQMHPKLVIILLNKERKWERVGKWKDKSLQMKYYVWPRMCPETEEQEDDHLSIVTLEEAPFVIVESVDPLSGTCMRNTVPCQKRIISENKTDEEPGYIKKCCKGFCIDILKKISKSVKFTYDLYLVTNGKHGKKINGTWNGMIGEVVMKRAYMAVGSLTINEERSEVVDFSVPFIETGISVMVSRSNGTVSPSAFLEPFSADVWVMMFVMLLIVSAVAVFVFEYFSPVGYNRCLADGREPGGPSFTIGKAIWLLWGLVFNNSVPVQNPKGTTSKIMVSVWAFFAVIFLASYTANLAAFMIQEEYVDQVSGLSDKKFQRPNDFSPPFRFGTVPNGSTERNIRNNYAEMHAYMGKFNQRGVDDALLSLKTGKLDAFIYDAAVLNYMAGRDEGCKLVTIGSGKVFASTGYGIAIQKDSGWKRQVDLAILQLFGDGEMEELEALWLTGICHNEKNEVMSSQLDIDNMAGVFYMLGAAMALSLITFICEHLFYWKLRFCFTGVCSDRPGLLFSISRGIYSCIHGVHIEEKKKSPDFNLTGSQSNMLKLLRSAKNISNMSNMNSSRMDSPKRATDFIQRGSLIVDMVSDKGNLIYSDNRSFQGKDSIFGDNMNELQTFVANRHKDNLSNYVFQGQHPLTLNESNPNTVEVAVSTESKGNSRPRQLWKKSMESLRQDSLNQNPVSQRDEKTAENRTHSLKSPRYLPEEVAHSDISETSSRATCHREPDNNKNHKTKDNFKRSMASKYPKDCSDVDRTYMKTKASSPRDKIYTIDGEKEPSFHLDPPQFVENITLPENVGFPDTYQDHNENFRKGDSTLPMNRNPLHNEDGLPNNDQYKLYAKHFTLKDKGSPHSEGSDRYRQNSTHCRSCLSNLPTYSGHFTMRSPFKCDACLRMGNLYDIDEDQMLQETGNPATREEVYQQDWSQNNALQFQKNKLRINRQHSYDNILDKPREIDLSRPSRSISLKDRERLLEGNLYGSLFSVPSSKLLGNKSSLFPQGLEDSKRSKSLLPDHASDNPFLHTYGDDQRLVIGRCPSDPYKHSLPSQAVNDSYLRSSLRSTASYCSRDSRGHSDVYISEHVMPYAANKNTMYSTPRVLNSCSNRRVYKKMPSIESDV
T2 sequence (Q00960+Q00959 fused with the stated changes, other chains not shown): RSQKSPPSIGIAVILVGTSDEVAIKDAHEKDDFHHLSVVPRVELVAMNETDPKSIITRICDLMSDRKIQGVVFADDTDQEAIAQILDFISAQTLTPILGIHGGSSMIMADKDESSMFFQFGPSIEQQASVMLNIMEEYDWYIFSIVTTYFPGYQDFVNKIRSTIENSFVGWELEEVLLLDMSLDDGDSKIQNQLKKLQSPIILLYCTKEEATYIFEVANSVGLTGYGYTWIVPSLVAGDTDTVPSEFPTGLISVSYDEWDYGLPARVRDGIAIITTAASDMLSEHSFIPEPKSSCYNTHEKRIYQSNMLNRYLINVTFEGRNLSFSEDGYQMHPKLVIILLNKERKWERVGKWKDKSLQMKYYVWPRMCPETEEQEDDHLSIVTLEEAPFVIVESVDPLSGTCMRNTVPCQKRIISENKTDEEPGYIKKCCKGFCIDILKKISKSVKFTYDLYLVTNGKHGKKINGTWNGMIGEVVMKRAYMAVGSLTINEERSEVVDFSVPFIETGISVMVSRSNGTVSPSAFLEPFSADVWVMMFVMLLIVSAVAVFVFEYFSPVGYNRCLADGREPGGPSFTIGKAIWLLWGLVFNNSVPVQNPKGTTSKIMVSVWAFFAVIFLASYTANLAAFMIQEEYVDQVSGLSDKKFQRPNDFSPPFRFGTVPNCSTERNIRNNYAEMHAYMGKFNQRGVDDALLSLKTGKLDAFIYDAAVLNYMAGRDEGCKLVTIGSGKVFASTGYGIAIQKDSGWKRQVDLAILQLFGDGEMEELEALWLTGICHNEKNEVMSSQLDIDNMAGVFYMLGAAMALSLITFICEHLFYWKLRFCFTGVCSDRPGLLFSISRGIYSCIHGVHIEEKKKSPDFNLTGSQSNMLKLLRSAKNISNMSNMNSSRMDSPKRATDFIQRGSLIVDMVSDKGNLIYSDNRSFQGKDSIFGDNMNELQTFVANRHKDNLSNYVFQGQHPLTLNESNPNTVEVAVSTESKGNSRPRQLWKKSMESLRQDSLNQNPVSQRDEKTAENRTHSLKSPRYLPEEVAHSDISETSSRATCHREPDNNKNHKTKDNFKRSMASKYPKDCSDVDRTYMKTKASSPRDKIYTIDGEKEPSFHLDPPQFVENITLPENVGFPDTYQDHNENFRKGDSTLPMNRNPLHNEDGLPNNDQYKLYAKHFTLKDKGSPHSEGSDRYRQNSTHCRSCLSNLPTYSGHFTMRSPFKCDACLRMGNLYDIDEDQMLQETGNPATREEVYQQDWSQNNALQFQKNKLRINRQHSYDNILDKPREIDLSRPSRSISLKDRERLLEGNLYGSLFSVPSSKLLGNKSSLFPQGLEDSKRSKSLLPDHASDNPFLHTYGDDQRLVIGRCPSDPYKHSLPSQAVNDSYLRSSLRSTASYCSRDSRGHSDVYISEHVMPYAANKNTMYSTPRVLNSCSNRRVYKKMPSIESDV

Q: What does the source list for `C[C@]12N[C@H](Cc3ccccc31)c1ccccc12` [MK-801]?
A: extrasynaptic fraction (current remaining after MK-801) ([1]; neurons overexpressing GluN2B-wt): 38%; fraction of remaining current after MK-801 ([1]; neurons overexpressing the variants): ~ 50%; block by MK-801 [2]: efficiently and potently blocks both variant receptors

Q: For pregnenolone-sulfate [PS], which “PS Potentiation (Fold change)” value ([3]; 100 μM PS) is on record?
A: 2.99 ± 0.10 n.s (N = 3, n = 20) Fold change

Q: What about the “potentiation by PS (fold increase)” value ([4]; 100 µM PS) of the same compound?
A: ~ fourfold

Q: What about the “PS Potentiation (Fold change)” value ([4]; 100 μM PS, 5 mM glutamate) of the same compound?
A: 3.96 ± 0.14 (N = 3, n = 18) Fold change

Q: What about the “potentiation by PS (fold increase)” value ([5]; 100 µM PS) of the same compound?
A: ~ fivefold

Q: What about the “PS Potentiation (Fold change)” value ([5]; 100 μM PS, 5 mM glutamate) of the same compound?
A: 4.68 ± 0.19 (N = 3, n = 23) Fold change

Q: What about the “PS Potentiation (Fold change)” value ([6]; 100 μM PS) of the same compound?
A: 3.03 ± 0.13 (N = 3, n = 16) Fold change

Q: What about the “PS Potentiation (Fold change)” value ([7]; 100 μM PS) of the same compound?
A: 2.12 ± 0.10 n.s (N = 3, n = 13) Fold change

Q: What about the “PS Potentiation (Fold change)” value ([8]; 100 μM PS) of the same compound?
A: 2.02 ± 0.06 n.s (N = 2, n = 13) Fold change

Q: And the “effect of PS on Imax” value ([9]; 100 μM PS with 100 μM NMDA, 50 μM glycine, all groups)?
A: increased Imax of neurons from all groups

Q: And the “effect of PS on NMDAR-current without added NMDA” value ([9]; 100 μM PS, no NMDA added)?
A: enhanced the overall NMDAR-current

Q: What about the “extent of potentiation (fold) by PS” value ([9]; 100 μM PS, neurons overexpressing the variants vs naive or GluN2B-wt) of the same compound?
A: significantly larger

Q: What about the “potentiation by PS (fold increase)” value ([10]; 100 µM PS, all tri-heteromeric types, wt or GluN2B variants) of the same compound?
A: ~ twofold

Q: And the “potentiation by PS (fold increase)” value [11]?
A: ~ threefold

Q: And the “mode of action of PS” value [12]?
A: negative allosteric modulator (NAM)

Q: What about the “mode of action of PS” value (GABAA receptor) of the same compound?
A: negative allosteric modulator (NAM)

Q: And the “PS Potentiation (Fold change)” value ([13]; 100 μM PS)?
A: 2.78 ± 0.15 n.s. (N = 3, n = 13) Fold change

Q: What about the “PS Potentiation (Fold change)” value ([14]; 100 μM PS) of the same compound?
A: 1.87 ± 0.04 (N = 4, n = 30) Fold change

Q: For `NCCCNCCCCNCCCN` [Spermine, spermine], which “Spermine Potentiation (Fold change)” value ([3]; 200 μM spermine, pH 7.3) is on record?
A: 1.61 ± 0.03 (N = 2, n = 24) Fold change

Q: What about the “Spermine Potentiation (Fold change)” value ([6]; 200 μM spermine, pH 7.3) of the same compound?
A: 1.97 ± 0.56 (N = 3, n = 25) Fold change

Q: And the “Spermine Potentiation (Fold change)” value ([7]; 200 μM spermine, pH 7.3)?
A: 0.70 ± 0.03 n.s (N = 1, n = 10) Fold change

Q: What about the “Spermine Potentiation (Fold change)” value ([8]; 200 μM spermine, pH 7.3) of the same compound?
A: 0.75 ± 0.02 n.s (N = 2, n = 19) Fold change

Q: And the response to spermine ([10]; 200 μM spermine, pH 7.3, 5 mM glutamate)?
A: non-responsive

Q: What about the “inhibition by spermine (fold)” value ([10]; all tri-heteromers examined, 200 μM spermine) of the same compound?
A: 0.75 fold

Q: And the response to spermine [15]?
A: poorly responsive

Q: What about the response to spermine [16] of the same compound?
A: inhibited

Q: And the “Spermine Potentiation (Fold change)” value ([13]; 200 μM spermine, pH 7.3)?
A: 1.78 ± 0.51 (N = 2, n = 20) Fold change

Q: And the “Spermine Potentiation (Fold change)” value ([14]; 200 μM spermine, pH 7.3)?
A: 0.73 ± 0.02 (N = 2, n = 12) Fold change

Q: For `CC(C)[C@@H](O)CC[C@@H](C)[C@H]1CC[C@H]2[C@@H]3CC=C4C[C@@H](O)CC[C@]4(C)[C@H]3CC[C@]12C` [24(S)-HC, 24(S)-hydroxycholesterol], which “potentiation by 24(S)-HC” value (all NMDAR-subtypes) is on record?
A: can potentiate all NMDAR-subtypes alike

Q: And the “effect of 24(S)-HC” value (GABAA receptors)?
A: no known effect

Q: What does the source list for `CC(C(O)c1ccc(O)cc1)N1CCC(Cc2ccccc2)CC1` (stereo not drawn) [ifenprodil]?
A: expected inhibition by ifenprodil (GluN2B di-heteromers): ~ 85%; expected inhibition by ifenprodil [17]: < 40%; expected inhibition by ifenprodil [18]: < 10%

Q: Which “direct effect of olanzapine on NMDAR currents” value [19] does the source give for `Cc1cc2c(s1)Nc1ccccc1N=C2N1CCN(C)CC1` [olanzapine] here?
A: no evidence for any direct effect
